Test results reported in ChEMBL document CHEMBL5046315, “CRCM5484: A BET-BDII Selective Compound with Differential Anti-leukemic Drug Modulation” (J Med Chem, 2022).
pEC50, pIC50: −log10 of the molar value. Active and inactive are the calls of the source. No cut-off for these calls is given here.

Assays:
[1] = biological target: Bromodomain-containing protein 2 (Homo sapiens, UniProt P25440); test: Inhibition of BRD2-BD1 (unknown origin) incubated for 6 hrs by HTRF method
[2] = biological target: Chromatin remodeling regulator CECR2 (Homo sapiens) (UniProt Q9BXF3); test: Binding affinity to partial length human CECR2 (P423 to D543 residues) expressed in bacterial system at 1 uM by BROMOscan method relative to control
Sequence of Chromatin remodeling regulator CECR2 (Homo sapiens) (Q9BXF3 whole entry, looked up, the tested form may be a part): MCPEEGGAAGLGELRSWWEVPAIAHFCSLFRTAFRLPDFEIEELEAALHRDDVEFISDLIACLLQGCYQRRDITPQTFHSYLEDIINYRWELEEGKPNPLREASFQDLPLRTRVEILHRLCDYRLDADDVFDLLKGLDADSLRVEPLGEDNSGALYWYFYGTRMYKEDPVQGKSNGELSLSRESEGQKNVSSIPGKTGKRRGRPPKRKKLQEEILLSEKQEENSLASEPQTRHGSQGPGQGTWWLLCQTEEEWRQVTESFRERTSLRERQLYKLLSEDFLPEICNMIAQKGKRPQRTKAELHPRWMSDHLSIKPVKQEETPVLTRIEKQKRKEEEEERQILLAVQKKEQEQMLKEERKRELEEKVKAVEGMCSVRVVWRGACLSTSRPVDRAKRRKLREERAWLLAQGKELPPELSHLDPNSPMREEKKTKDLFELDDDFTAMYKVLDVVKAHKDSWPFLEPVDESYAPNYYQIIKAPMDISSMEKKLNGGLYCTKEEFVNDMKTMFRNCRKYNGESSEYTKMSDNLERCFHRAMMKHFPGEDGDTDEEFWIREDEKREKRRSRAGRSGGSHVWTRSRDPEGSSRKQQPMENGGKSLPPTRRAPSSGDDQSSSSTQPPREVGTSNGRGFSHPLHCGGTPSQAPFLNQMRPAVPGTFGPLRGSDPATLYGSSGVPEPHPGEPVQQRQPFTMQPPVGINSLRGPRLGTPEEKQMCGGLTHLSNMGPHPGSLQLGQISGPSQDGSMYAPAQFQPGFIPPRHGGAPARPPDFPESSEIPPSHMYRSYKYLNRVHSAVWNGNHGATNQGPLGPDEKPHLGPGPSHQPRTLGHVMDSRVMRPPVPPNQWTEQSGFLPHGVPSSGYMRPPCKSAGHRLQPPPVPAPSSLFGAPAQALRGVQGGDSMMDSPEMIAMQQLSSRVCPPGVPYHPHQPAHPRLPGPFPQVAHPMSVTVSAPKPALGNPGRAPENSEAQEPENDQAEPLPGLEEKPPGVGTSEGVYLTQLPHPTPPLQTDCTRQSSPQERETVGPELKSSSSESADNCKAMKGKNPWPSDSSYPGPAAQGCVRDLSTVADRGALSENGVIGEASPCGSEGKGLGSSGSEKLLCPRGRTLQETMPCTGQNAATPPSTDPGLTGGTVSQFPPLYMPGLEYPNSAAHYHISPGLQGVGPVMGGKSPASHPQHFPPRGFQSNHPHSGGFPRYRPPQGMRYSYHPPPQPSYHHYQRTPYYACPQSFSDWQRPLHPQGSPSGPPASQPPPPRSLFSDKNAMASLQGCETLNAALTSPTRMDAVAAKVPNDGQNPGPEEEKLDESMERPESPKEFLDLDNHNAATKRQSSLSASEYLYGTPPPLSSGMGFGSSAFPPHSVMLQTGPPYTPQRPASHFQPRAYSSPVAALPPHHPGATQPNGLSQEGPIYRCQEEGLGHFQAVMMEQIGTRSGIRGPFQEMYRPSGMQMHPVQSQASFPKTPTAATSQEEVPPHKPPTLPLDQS

NB-4 = test: Cytotoxicity against human NB-4 cells assessed as reduction in cell viability incubated for 72 hrs; assay type: functional, cell-based; details: NB-4, 72 h
CCRF-CEM [3] = test: Cytotoxicity against human CCRF-CEM cells assessed as reduction in cell viability incubated for 72 hrs; assay type: functional, cell-based
[4] = tested on: Acute myeloid leukemic cell; test: Potentiation of birinapant-induced antileukemic activity against patient derived mouse xenografted acute myeloid leukemic cells assessed as cell viability at 2 uM measured after 72 to 144 hrs by Cell-titre glo luminescent assay; assay type: functional, cell-based; details: Homo sapiens, time lower […], time upper 144.0 hrs
CCRF-CEM [5] = test: Potentiation of afatinib-induced antileukemic activity against human CCRF-CEM cells at 4.3 uM in presence of bone-marrow derived stromal cell-conditioned medium; assay type: functional, cell-based
CCRF-CEM [6] = test: Potentiation of azacitidine-induced antileukemic activity against human CCRF-CEM cells at 4.3 uM in presence of bone-marrow derived stromal cell-conditioned medium; assay type: functional, cell-based
CCRF-CEM [7] = test: Potentiation of birinapant-induced antileukemic activity against human CCRF-CEM cells at 4.3 uM in presence of bone-marrow derived stromal cell-conditioned medium; assay type: functional, cell-based
CCRF-CEM [8] = test: Potentiation of bortezomib-induced antileukemic activity against human CCRF-CEM cells at 4.3 uM in presence of bone-marrow derived stromal cell-conditioned medium; assay type: functional, cell-based
CCRF-CEM [9] = test: Potentiation of luminespid-induced antileukemic activity against human CCRF-CEM cells at 4.3 uM in presence of bone-marrow derived stromal cell-conditioned medium; assay type: functional, cell-based
CCRF-CEM [10] = test: Potentiation of palbociclib-induced antileukemic activity against human CCRF-CEM cells at 4.3 uM in presence of bone-marrow derived stromal cell-conditioned medium; assay type: functional, cell-based
CCRF-CEM [11] = test: Potentiation of prima1-induced antileukemic activity against human CCRF-CEM cells at 4.3 uM in presence of bone-marrow derived stromal cell-conditioned medium; assay type: functional, cell-based
CCRF-CEM [12] = test: Potentiation of quizartinib-induced antileukemic activity against human CCRF-CEM cells at 4.3 uM in presence of bone-marrow derived stromal cell-conditioned medium; assay type: functional, cell-based
CCRF-CEM [13] = test: Potentiation of selinexor-induced antileukemic activity against human CCRF-CEM cells at 4.3 uM in presence of bone-marrow derived stromal cell-conditioned medium; assay type: functional, cell-based
CCRF-CEM [14] = test: Potentiation of temsirolimus-induced antileukemic activity against human CCRF-CEM cells at 4.3 uM in presence of bone-marrow derived stromal cell-conditioned medium; assay type: functional, cell-based
CCRF-CEM [15] = test: Potentiation of vincristine-induced antileukemic activity against human CCRF-CEM cells at 4.3 uM in presence of bone-marrow derived stromal cell-conditioned medium; assay type: functional, cell-based
CCRF-CEM [16] = test: Potentiation of VX680-induced antileukemic activity against human CCRF-CEM cells at 4.3 uM in presence of bone-marrow derived stromal cell-conditioned medium; assay type: functional, cell-based
U-937 [17] = test: Potentiation of birinapant-induced antileukemic activity against human U-937 cells at 4.3 uM in presence of bone-marrow derived stromal cell-conditioned medium; assay type: functional, cell-based
U-937 [18] = test: Potentiation of BKM120-induced antileukemic activity against human U-937 cells at 4.3 uM in presence of bone-marrow derived stromal cell-conditioned medium; assay type: functional, cell-based
U-937 [19] = test: Potentiation of cladribine-induced antileukemic activity against human U-937 cells at 4.3 uM in presence of bone-marrow derived stromal cell-conditioned medium; assay type: functional, cell-based
U-937 [20] = test: Potentiation of crenolatinib-induced antileukemic activity against human U-937 cells at 4.3 uM in presence of bone-marrow derived stromal cell-conditioned medium; assay type: functional, cell-based
U-937 [21] = test: Potentiation of dasatinib-induced antileukemic activity against human U-937 cells at 4.3 uM in presence of bone-marrow derived stromal cell-conditioned medium; assay type: functional, cell-based
U-937 [22] = test: Potentiation of decitabine-induced antileukemic activity against human U-937 cells at 4.3 uM in presence of bone-marrow derived stromal cell-conditioned medium; assay type: functional, cell-based
U-937 [23] = test: Potentiation of entinostat-induced antileukemic activity against human U-937 cells at 4.3 uM in presence of bone-marrow derived stromal cell-conditioned medium; assay type: functional, cell-based
U-937 [24] = test: Potentiation of EPZ5676-induced antileukemic activity against human U-937 cells at 4.3 uM in presence of bone-marrow derived stromal cell-conditioned medium; assay type: functional, cell-based
U-937 [25] = test: Potentiation of gefitinib-induced antileukemic activity against human U-937 cells at 4.3 uM in presence of bone-marrow derived stromal cell-conditioned medium; assay type: functional, cell-based
U-937 [26] = test: Potentiation of GSK2879552-induced antileukemic activity against human U-937 cells at 4.3 uM in presence of bone-marrow derived stromal cell-conditioned medium; assay type: functional, cell-based
U-937 [27] = test: Potentiation of seliciclib-induced antileukemic activity against human U-937 cells at 4.3 uM in presence of bone-marrow derived stromal cell-conditioned medium; assay type: functional, cell-based
U-937 [28] = test: Potentiation of tipifarnib-induced antileukemic activity against human U-937 cells at 4.3 uM in presence of bone-marrow derived stromal cell-conditioned medium; assay type: functional, cell-based
U-937 [29] = test: Potentiation of tretinoin-induced antileukemic activity against human U-937 cells at 4.3 uM in presence of bone-marrow derived stromal cell-conditioned medium; assay type: functional, cell-based
U-937 [30] = test: Potentiation of venetoclax-induced antileukemic activity against human U-937 cells at 4.3 uM in presence of bone-marrow derived stromal cell-conditioned medium; assay type: functional, cell-based
MOLM-14 [31] = test: Potentiation of AG-221-induced antileukemic activity against human MOLM-14 cells at 4.3 uM in presence of bone-marrow derived stromal cell-conditioned medium; assay type: functional, cell-based
MOLM-14 [32] = test: Potentiation of asparaginase-induced antileukemic activity against human MOLM-14 cells at 4.3 uM in presence of bone-marrow derived stromal cell-conditioned medium; assay type: functional, cell-based
MOLM-14 [33] = test: Potentiation of clofarabine-induced antileukemic activity against human MOLM-14 cells at 4.3 uM in presence of bone-marrow derived stromal cell-conditioned medium; assay type: functional, cell-based
MOLM-14 [34] = test: Potentiation of hydroxychloroquine-induced antileukemic activity against human MOLM-14 cells at 4.3 uM in presence of bone-marrow derived stromal cell-conditioned medium; assay type: functional, cell-based
MOLM-14 [35] = test: Potentiation of nelarabine-induced antileukemic activity against human MOLM-14 cells at 4.3 uM in presence of bone-marrow derived stromal cell-conditioned medium; assay type: functional, cell-based
MOLM-14 [36] = test: Potentiation of OTX015-induced antileukemic activity against human MOLM-14 cells at 4.3 uM in presence of bone-marrow derived stromal cell-conditioned medium; assay type: functional, cell-based
MOLM-14 [37] = test: Potentiation of ponatinib-induced antileukemic activity against human MOLM-14 cells at 4.3 uM in presence of bone-marrow derived stromal cell-conditioned medium; assay type: functional, cell-based
MOLM-14 [38] = test: Potentiation of tipifarnib-induced antileukemic activity against human MOLM-14 cells at 4.3 uM in presence of bone-marrow derived stromal cell-conditioned medium; assay type: functional, cell-based
MOLM-14 [39] = test: Potentiation of venetoclax-induced antileukemic activity against human MOLM-14 cells at 4.3 uM in presence of bone-marrow derived stromal cell-conditioned medium; assay type: functional, cell-based
MOLM-14 [40] = test: Potentiation of VX680-induced antileukemic activity against human MOLM-14 cells at 4.3 uM in presence of bone-marrow derived stromal cell-conditioned medium; assay type: functional, cell-based

Sequence of Bromodomain-containing protein 2 (P25440 whole entry, the tested form may be a part): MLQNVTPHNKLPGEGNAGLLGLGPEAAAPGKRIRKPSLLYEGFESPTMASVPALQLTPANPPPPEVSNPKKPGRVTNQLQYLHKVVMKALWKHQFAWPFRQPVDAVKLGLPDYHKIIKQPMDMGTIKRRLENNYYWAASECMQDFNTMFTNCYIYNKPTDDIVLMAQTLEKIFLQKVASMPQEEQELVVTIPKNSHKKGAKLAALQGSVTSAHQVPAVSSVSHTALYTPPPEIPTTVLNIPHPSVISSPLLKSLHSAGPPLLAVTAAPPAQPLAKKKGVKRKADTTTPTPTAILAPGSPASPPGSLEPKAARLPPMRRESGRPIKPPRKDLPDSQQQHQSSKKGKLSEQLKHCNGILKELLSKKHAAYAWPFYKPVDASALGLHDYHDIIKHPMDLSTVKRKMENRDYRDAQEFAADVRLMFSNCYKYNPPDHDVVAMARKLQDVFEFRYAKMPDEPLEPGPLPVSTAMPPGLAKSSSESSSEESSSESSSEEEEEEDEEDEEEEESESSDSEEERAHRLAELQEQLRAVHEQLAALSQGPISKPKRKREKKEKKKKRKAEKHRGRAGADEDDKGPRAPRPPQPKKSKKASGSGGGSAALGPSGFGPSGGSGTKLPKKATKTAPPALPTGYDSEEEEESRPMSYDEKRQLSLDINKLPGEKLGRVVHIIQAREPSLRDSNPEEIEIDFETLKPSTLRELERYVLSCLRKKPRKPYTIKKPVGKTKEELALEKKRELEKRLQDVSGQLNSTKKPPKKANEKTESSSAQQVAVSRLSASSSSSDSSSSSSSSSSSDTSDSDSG

CC(=O)N1CCc2c(sc3nc(SCC(=O)Nc4cccnc4C)n(Cc4ccco4)c(=O)c23)C1
pIC50 [1]: 5.33 | Activity [2]: 54% | pEC50 (NB-4): < 5.30 | pEC50 (CCRF-CEM [3]): < 5.30 | Activity [4]: Active | Activity (CCRF-CEM [5]): inactive | Activity (CCRF-CEM [6]): inactive | Activity (CCRF-CEM [7]): inactive | Activity (CCRF-CEM [8]): inactive | Activity (CCRF-CEM [9]): inactive | Activity (CCRF-CEM [10]): inactive | Activity (CCRF-CEM [11]): inactive | Activity (CCRF-CEM [12]): inactive | Activity (CCRF-CEM [13]): inactive | Activity (CCRF-CEM [14]): inactive | Activity (CCRF-CEM [15]): inactive | Activity (CCRF-CEM [16]): inactive | Activity (U-937 [17]): inactive | Activity (U-937 [18]): inactive | Activity (U-937 [19]): inactive | Activity (U-937 [20]): inactive | Activity (U-937 [21]): inactive | Activity (U-937 [22]): inactive | Activity (U-937 [23]): inactive | Activity (U-937 [24]): inactive | Activity (U-937 [25]): inactive | Activity (U-937 [26]): inactive | Activity (U-937 [27]): inactive | Activity (U-937 [28]): inactive | Activity (U-937 [29]): inactive | Activity (U-937 [30]): inactive | Activity (MOLM-14 [31]): inactive | Activity (MOLM-14 [32]): inactive | Activity (MOLM-14 [33]): inactive | Activity (MOLM-14 [34]): inactive | Activity (MOLM-14 [35]): inactive | Activity (MOLM-14 [36]): inactive | Activity (MOLM-14 [37]): inactive | Activity (MOLM-14 [38]): inactive | Activity (MOLM-14 [39]): inactive | Activity (MOLM-14 [40]): inactive
